From patent US10472334B2, “Small molecules for inhibiting male fertility” (The University of North Carolina at Chapel Hill, priority 2014, dated 2019)
Where two headings read alike, the source gives them in different places.

Key:
human spermatozoa = test: Internal sperm pH detection with BCECF; type: cell-based; conditions: FIG. 6, 10 and 20 μM
Experimental: A series of experiments was performed to determine the mechanism of action of the compounds described herein. The experiments were carried out as described in O'Rand and Widgren, “Loss of Calcium in Human Spermatozoa via EPPIN, the Semenogelin Receptor,” Biology of Reproduction, (2012) 86(2):55, 1-7.
The AM ester derivative of the pH-sensitive dye BCECF (5 μM; Molecular Probes) was used to detect changes in the pH in spermatozoa treated with SEMG1. Spermatozoa were loaded with BCECF-AM for 30 min in bovine serum albumin-free medium, centrifuged to remove extracellular dye, and resuspended in M16M. Changes to 1.13105-0.93105 spermatozoa/well in 50 μl of M16M at 378 C after treatment with 3.2 μM SEMG1 were monitored in a BioTek (Winookski, Vt.) Synergy2 Multiplatform automated plate reader (with heater and shaker); wells were excited using a 485/20 filter and emission read with a 528/20 filter. Fluorescence was read immediately and recorded every 10 sec; readings for each time point were normalized, averaged, and expressed as percentages of decrease in relative fluorescent units. Data from three ejaculate samples are reported.

human sperm motility = test: Computer-assisted sperm analysis (CASA) of human sperm motility; type: cell-based; conditions: for IC50: Homo sapiens, Sperm
Experimental: In another embodiment, a computer-assisted sperm analysis (CASA) can be used as a live cell compound screen for determining the effect of compounds on human sperm motility. Additionally, to facilitate the IC50 evaluation of compounds using different ejaculates, reducing inter-assay variation due to differences in sperm quality in different semen samples, an index of relative motility inhibition (RMI) was developed.
This is calculated as: RMI=[% motility*VSL]; percentage of motile sperm (% motility) or the percentage of progressively motile sperm (% progressive motility, RPMI) multiplied by the straight-line velocity (VSL); the average velocity measured in a straight line from the beginning to the end of a track in μm/sec.
Normalized RMI can be calculated by dividing the RMI of each experimental condition by its respective DMSO control.
Computer-assisted sperm analysis (CASA) was used as a live cell compound screen for determining the effect of compounds on human sperm motility. Computer-assisted sperm analysis (CASA) was performed using the approach taught in Mitra et al., Biology of Reproduction, Vol. 82, p 491 (2010), to determine the parameters of the control versus compound-treated spermatozoa. The parameters measured are: average pathway velocity (VAP: the average velocity of the smoothed cell path in 1 m/sec), the straight-line velocity (VSL: the average velocity measured in a straight line from the beginning to the end of track in 1 m/sec), the curvilinear velocity (VCL: the average velocity measured over the actual point-to-point track of the cell in 1 m/sec), the lateral head amplitude (ALH: amplitude of lateral head displacement in 1 m), the beat cross-frequency (BCF: frequency of sperm head crossing the sperm average path in Hz), the straightness (STR: the average value of the ratio VSL/VAP in %), and the linearity (LIN: the average value of the ratio VSL/VCL in %). The sperm motility parameters are assessed in pre-warmed (37° C.) two- or four-chambered 20-mm Leja slides, loading 5 μL or 2 μL, respectively, of the samples in each chamber and immediately using CASA. This computerized measuring device included a phase-contrast microscope (Olympus CX41), a camera, a mini-therm stage warmer, an image digitizer, and a computer to store and analyze data. The software used for data analysis is the HTR Ceros 12.3 (Hamilton-Thorne Biosciences). A range of 13 to 20 fields are scanned from each chamber. Progressive cells had to have a minimum of 25 μm/sec VAP and 80% of STR.
To facilitate the IC50 evaluation of compounds using different ejaculates, reducing inter-assay variation due to differences in sperm quality in different semen samples, an index of relative motility inhibition (RMI) was developed. This is calculated as: RMI=[% motility*VSL]; percentage of motile sperm (% motility) or the percentage of progressively motile sperm (% progressive motility, RPMI) multiplied by the straight-line velocity (VSL); the average velocity measured in a straight line from the beginning to the end of a sperm track in μm/sec. Normalized RMI (RPMI) was calculated by dividing the RMI of each experimental condition by its respective DMSO control.
The analysis of sperm motility was carried out with computer-assisted sperm analysis (CASA) (Ceros version 12.3 software; Hamilton-Thorne), using the techniques taught in Mitra et al., Biology of Reproduction, Vol. 82, p 491 (2010).

IC50 (human sperm motility; FIG. 10, RMI using % progressive motility, read-out: IC50 in terms of progressive motility): ~4.3 µM
IC50 (human sperm motility; FIGS. 3 and 4, read-out: IC50, CASA, RMI (relative motility)): ~7.5 µM
IC50 (human sperm motility; relative motility index using % progressive motility, read-out: CASA IC50 RPMI): 7.5 µM
SMILES: CCOC(=O)CSc1nc(NNC(=O)OC)nc(Nc2ccc(NC(=O)OC)c(O)c2)n1 [TZ4_121, [4-(3-Hydroxy-4-methoxycarbonylamino-phenylamino)-6-(N′methoxycarbonyl-hydrazino)-1,3,5-triazin-2-ylsulfanyl]-acetic acid ethyl ester]
change in internal sperm pH (human spermatozoa): significant decrease in pH
change in progressive motility (human sperm motility; FIG. 7, 12.5 μM): significant decrease in progressive motility
time until infertility would likely result, time course of sperm motility (human sperm motility; concentration of around 20 μM, FIG. 5): 3 to 5 min
sperm killed (human sperm motility; within 3 minutes): > 70%
